In brackets after ≈: the same amount, converted by molar mass. Several values for one entry are separate records, joined by “and”; a condition that tells them apart may be missing. Equal entries are not always repeated. Where two headings read alike, the source gives them in different places.

Usually MIC stands for the lowest concentration found to suppress growth. The IC50 is the midpoint of a concentration-inhibition curve.

Series [1] has as its system MRSA ATCC 43300. Kind of series: MIC against methicillin resistant Staphylococcus aureus (MRSA). Conditions: read-out: MRSA MIC, ATCC 43300.
Series [2] can be described thus: In vitro burst release of liposomal drug in plasma, human. Conditions: mouse or human plasma, 20 min 37° C., 0.5 M AS liposomes, 40-65 mol% Chol (FIG. 5A, 5B).
Experimental: The plasma was thawed, if necessary, adjusted to pH 7.4 with 1 N HCl, and sequentially filtered through glass microfiber filters (GF/C), 1 µm polyethersulfone (PES), and 0.22 µm PES filters. Plasma (80 µl) was mixed with liposomal drug formulations (20 µl) in a 0.5 ml Eppendorf tube. The mixture was subsequently incubated for 20 min at 37° C. and then put into chilled water.
Incubation time was 20 min.
The test system of series [3] is M. chelonae. Kind of series: MIC in nontuberculosis mycobacteria (microbroth dilution, resazurin). The class given is cell-based, Mycobacterium chelonae. Conditions: Mycobacteroides chelonae.
The subject of series [4] is M. massiliense. Described as above. The class given is cell-based, Mycobacterium massiliense.
Series [5] has as its system human hepatocyte/liver (HepG2; ATCC #HB8065) cells. Kind of series: In vitro cytotoxicity (PrestoBlue cell viability), HepG2. The class given is cell-based. The following applies: Homo sapiens, HepG2, 72 h, read-out: Cell viability IC50, HepG2.
For series [6], the system named is African green monkey kidney (Vero; ATCC # CCL81) cells. Briefly: In vitro cytotoxicity (PrestoBlue cell viability), Vero. Type of series: cell-based. The following applies: Chlorocebus sabaeus, Vero, 72 h, read-out: Cell viability IC50, VERO.
Series [7] concerns M.tb Erdman. Kind of series: Broth microdilution MIC with Alamar blue endpoint (MABA) / OD600. The class given is cell-based, Mycobacterium tuberculosis. In general terms: In broth dilution the organism is exposed to a series of concentrations in liquid medium.
Series [8] has as its system MRSA 880 NR-49120. Kind of series: MIC against methicillin resistant Staphylococcus aureus (MRSA). The following applies: read-out: MRSA MIC, 880 NR-49120.
The test system of series [9] is M. kansasii. Kind of series: MIC in nontuberculosis mycobacteria (microbroth dilution, resazurin). Type of series: cell-based. Conditions: Mycobacterium kansasii.
In series [10] the test system is M.avium. The description is as above. Type of series: cell-based, Mycobacterium avium. The following applies: for MIC: Mycobacterium avium.
A short description of series [11]: Liposome loading / encapsulation efficiency (General protocol). Conditions: for maximum drug load: HSPC:Chol 3:2, 0.5 mol% PEG-DSG (Example 14).
In series [12] the test system is M.tb H37Rv. Kind of series: Broth microdilution MIC with Alamar blue endpoint (MABA) / OD600. The class given is cell-based, Mycobacterium tuberculosis.
Series [13] relates to M. Tuberculosis Erdman or H37Rv vs VERO or HepG2 cells. Kind of series: Selectivity Index (mammalian cell IC50 / bacterial MIC). Further details: species or system Mycobacterium tuberculosis.
The test system of series [14] is mitochondrial protein synthesis (COX-1/SDH-A ratio) in H9C2 rat heart myoblast cells. Kind of series: Mitochondrial protein synthesis inhibition (MitoBiogenesis in-cell ELISA, COX-1/SDH-A). Conditions: 120 h, five days, read-out: MPS IC50. Type of series: cell-based. A general note: An ELISA detects its analyte on a solid surface through an enzyme-linked reagent.
Series [15] can be described thus: Aqueous solubility (visually clear solutions). The class given is physicochemical. The procedure: Working stocks of the compounds were prepared as follows: to an aliquot of a compound (free base) in a powder form 1-1.5 equivalents of HCl in the form of 1 N aqueous solution was added, and the mixture was vortexed until homogeneity. To the resulting cake or syrup, water was added typically to the final 10 mg/ml, and complete dissolution was observed. In some instances, 0.95 equivalents of HCl were added to the free base form of the drug, and 20 mg/ml stock solution was prepared.
Aqueous solubility of the compounds of the present disclosure is illustrated by the following observations of obtaining visually clear solutions: […]

The subject of series [16] is M. abscessus. Briefly: MIC in nontuberculosis mycobacteria (microbroth dilution, resazurin). Conditions: Mycobacteroides abscessus. The class given is cell-based, Mycobacterium abscessus.
Series [17] relates to MRSA ATCC BAA-1556. Briefly: MIC against methicillin resistant Staphylococcus aureus (MRSA).
For series [18] the following is noted: from drugbank.ca; cited from earlier work.
The test system of series [19] is MRSA ATCC BAA-1556. The following applies: cited from earlier work.
The mark [20] stands for this setting: M. kansasii strain 662, read-out: MIC.
[21] abbreviates: M. avium sbsp. avium strain 2285 R, read-out: MIC.
Where [22] appears, read: read-out: MRSA MIC, ATCC BAA-1556.
Setting [23] is: Mycobacterium tuberculosis, ERDMAN; read-out: Mycobacterium tuberculosis MIC, Erdman.
[24] abbreviates: Mycobacterium tuberculosis, H37RV; read-out: Mycobacterium tuberculosis MIC, H37Rv.

As for `CN(C)CCn1nnc(-c2ccc(-c3ccc(N4C[C@H](CN)OC4=O)cc3F)cn2)n1.Cl` [AKG-28], the MIC in [1] was > 50 µg/mL; in [3] (M. chelonae strain 49) it was 0.06 µg/mL; in series [3] (M. chelonae strain 69), 0.5 µg/mL; in [3] (M. chelonae strain 35752), 0.125 µg/mL; in series [4] (Mycobacteroides abscessus), 0.25 µg/mL; in series [4] (Mycobacteroides abscessus, CIP108297) it was 1 µg/mL. Further, the MIC was 0.03 µg/mL in series [7] (Mycobacterium tuberculosis, ERDMAN, read-out: Mycobacterium tuberculosis MIC, Erdman); > 50 µg/mL in series [8]; 0.125 µg/mL in [9]; > 32 µg/mL in series [9] (setting [20]); 0.06 µg/mL in series [10] (setting [21]); 0.125 µg/mL in series [10] (M. avium sbsp. avium strain 2285 S). Besides, the MIC in series [10] (M. avium sbsp. avium strain 3993) was 0.125 µg/mL; in [12] (Mycobacterium tuberculosis, H37RV, read-out: MIC (H37Rv)), 0.015 µg/mL; in [12] (Mycobacterium tuberculosis, H37RV, read-out: Mycobacterium tuberculosis MIC, H37Rv), 0.015 µg/mL; in [16] (M. abscessus sbsp. abscessus strain 21), 0.25 µg/mL; in series [16] (M. abscessus sbsp. abscessus strain 1513), 32 µg/mL; in series [16] (M. abscessus sbsp. abscessus strain 1948), 0.125 µg/mL. Moreover, the MIC in series [17] (read-out: MRSA MIC) and in series [17] (setting [22]) was > 50 µg/mL in each case. Also, the “burst release phenomenon in plasma in vitro” value in [2] is given as “observed in human plasma for the formulations containing 40 mol.% cholesterol, but not for the formulations with 45 mol.% or more of cholesterol”. The figures for the IC50 in series [5], in series [6] and in [14] were 13.4 µg/mL, 83 µg/mL and 0.411 µg/mL, respectively. Moreover, the “fold more potent than linezolid in killing M. Tuberculosis in vitro” value in series [7] (Erdmann strain) was 33 fold. Moreover, the “potency relative to tedizolid in NTM species and strains” value in series [10] (M.avium, M. chelonae, M. abscessus and M. kansasii) was “generally more potent than tedizolid”. Also, the maximum drug load is given as 404-424 g/mol PhL in series [11] (0.5 M AS) and 315-328 g/mol PhL in series [11] (1 N TEA-SOS). Moreover, the loading efficiency entry in series [11] (0.5 M AS, at drug loads of 302 (AKG-28) and 387-764 (AKG-38) g/mol PhL) is “quantitative loading”. Further, in [11] (1 N TEA-SOS, at drug load 250 (AKG-28) and 400-777 (AKG-38) g/mol PhL), the maximum loading efficiency came to 83.5%. Further, the “liposome aggregation during drug loading” value in series [11] (30 mol% cholesterol, 1 N TEA-SOS, AKG-28: 5 mol% PEG-DSG or PEG-DSPE, AKG-38: 5 mol% PEG-DSPE) is “irreversibly aggregated during the drug loading”. The “loading efficiency (from unencapsulated drug in pre-concentration diafiltrate)” value in series [11] (scaled-up lots, HSPC:Chol:PEG-DSPE 45:55:2.25, 0.5 M AS, DL 250 (AKG-28) or 450 (AKG-38) g/mol) was 99.1% and 99.3%. Besides, the “Selectivity Index (SI) Erd/HepG2” value in [13] stood at 446.7. For the same molecule, in series [13], the “Selectivity Index (SI) Erd/VERO” value is given as 2766.7. In addition, the “Concentration % (w/w) of free base (visually clear solution)” value in series [15] (aqueous, 1 N HCl and/or water added) is 7.3 % (w/w).
Regarding `CC(=O)NC[C@H]1CN(c2ccc(N3CCSCC3)c(F)c2)C(=O)O1` [Sutezolid, reference compound], the MIC in series [7] (setting [23]) and in [12] (setting [24]) was 0.5 µg/mL (≈ 1.41 µM) throughout. In [18], the known aqueous solubility is 237 µg/mL.
Regarding `Cn1nnc(-c2ccc(-c3ccc(N4C[C@H](CO)OC4=O)cc3F)cn2)n1` [Tedizolid, reference compound], the MIC in series [1] stood at 0.617 µg/mL (≈ 1.67 µM); in series [3] (M. chelonae strain 49, read-out: MIC), 0.25 µg/mL (≈ 0.675 µM); in series [3] (M. chelonae strain 69, read-out: MIC) it was 2 µg/mL (≈ 5.4 µM); in [3] (M. chelonae strain 35752) it was 0.125 µg/mL (≈ 0.338 µM); in series [4] (M. massiliense strain M154), 0.06 µg/mL (≈ 0.162 µM); in series [4] (Mycobacteroides abscessus, CIP108297, M. massiliense strain CIP 108297, read-out: MIC), 0.25 µg/mL (≈ 0.675 µM). For the same molecule, the MIC in series [4] (Mycobacteroides abscessus, M. massiliense strain CRM0019, read-out: MIC) is 0.06 µg/mL (≈ 0.162 µM); in series [7] (setting [23]), 0.25 µg/mL (≈ 0.675 µM); in series [7] (Mycobacterium tuberculosis; M. tuberculosis Erdman / H37Rv, strains not separated; read-out: MIC), 0.25 µg/mL (≈ 0.675 µM); in [8], 0.206 µg/mL (≈ 0.556 µM); in series [9] it was 0.125 µg/mL (≈ 0.338 µM); in series [9] (setting [20]), > 32 µg/mL. Further, the MIC is 0.25 µg/mL (≈ 0.675 µM) in [9] (M. kansasii strain 732, read-out: MIC); 0.25 µg/mL (≈ 0.675 µM) in series [9] (M. kansasii strain 824, read-out: MIC); 0.25 µg/mL (≈ 0.675 µM) in [9] (M. kansasii strain MK13D6, read-out: MIC); 0.25 µg/mL (≈ 0.675 µM) in [10] (setting [21]); 0.25 µg/mL (≈ 0.675 µM) in series [10] (M. avium sbsp. avium strain 2285 S, read-out: MIC); 0.25 µg/mL (≈ 0.675 µM) in [10] (M. avium sbsp. avium strain 3993, read-out: MIC). The MIC in series [12] (Mycobacterium tuberculosis, H37RV; as determined in Example 2; read-out: MIC (H37Rv)) is 0.25 µg/mL (≈ 0.675 µM); in [12] (setting [24]), 0.25 µg/mL (≈ 0.675 µM); in series [16] (M. abscessus sbsp. abscessus strain 21, read-out: MIC) it was 0.5 µg/mL (≈ 1.35 µM); in series [16] (M. abscessus sbsp. abscessus strain 1513, read-out: MIC) it was 4 µg/mL (≈ 10.8 µM); in [16] (M. abscessus sbsp. abscessus strain 1948, read-out: MIC), 0.5 µg/mL (≈ 1.35 µM); in [17] (read-out: MRSA MIC), 0.206 to 0.617 µg/mL (≈ 0.556 to 1.67 µM). In addition, the MIC in series [17] (setting [22]) is 0.617 µg/mL (≈ 1.67 µM). For the same molecule, the “activity relative to AKG-28 and AKG-38” value in series [4] (M. massiliense, three strains) is recorded as “more active in all three strains evaluated”. For the same molecule, in [19], the “MRSA MIC described in U.S. Pat. No. 7,816,379” value was 0.5 µg/mL. The IC50 in series [14] came out at 0.143 µg/mL (≈ 0.386 µM). For the same molecule, in [15], the “solubility in water for gradient-assisted liposome loading” value is recorded as “not soluble enough in water”.

(Values after patent publication US20230348447A1, “OXAZOLIDINONE COMPOUNDS, LIPOSOME COMPOSITIONS COMPRISING OXAZOLIDINONE COMPOUNDS AND METHOD OF USE THEREOF” (priority 2020, published 2023).)
